The values below come from US20130203718A1 (priority 2010, published 2013).

Usually melting point stands for the temperature of the solid-liquid transition.

One data set concerns the target T1, hPRB (Homo sapiens, UniProt P06401).
T1 sequence (P06401 1-933): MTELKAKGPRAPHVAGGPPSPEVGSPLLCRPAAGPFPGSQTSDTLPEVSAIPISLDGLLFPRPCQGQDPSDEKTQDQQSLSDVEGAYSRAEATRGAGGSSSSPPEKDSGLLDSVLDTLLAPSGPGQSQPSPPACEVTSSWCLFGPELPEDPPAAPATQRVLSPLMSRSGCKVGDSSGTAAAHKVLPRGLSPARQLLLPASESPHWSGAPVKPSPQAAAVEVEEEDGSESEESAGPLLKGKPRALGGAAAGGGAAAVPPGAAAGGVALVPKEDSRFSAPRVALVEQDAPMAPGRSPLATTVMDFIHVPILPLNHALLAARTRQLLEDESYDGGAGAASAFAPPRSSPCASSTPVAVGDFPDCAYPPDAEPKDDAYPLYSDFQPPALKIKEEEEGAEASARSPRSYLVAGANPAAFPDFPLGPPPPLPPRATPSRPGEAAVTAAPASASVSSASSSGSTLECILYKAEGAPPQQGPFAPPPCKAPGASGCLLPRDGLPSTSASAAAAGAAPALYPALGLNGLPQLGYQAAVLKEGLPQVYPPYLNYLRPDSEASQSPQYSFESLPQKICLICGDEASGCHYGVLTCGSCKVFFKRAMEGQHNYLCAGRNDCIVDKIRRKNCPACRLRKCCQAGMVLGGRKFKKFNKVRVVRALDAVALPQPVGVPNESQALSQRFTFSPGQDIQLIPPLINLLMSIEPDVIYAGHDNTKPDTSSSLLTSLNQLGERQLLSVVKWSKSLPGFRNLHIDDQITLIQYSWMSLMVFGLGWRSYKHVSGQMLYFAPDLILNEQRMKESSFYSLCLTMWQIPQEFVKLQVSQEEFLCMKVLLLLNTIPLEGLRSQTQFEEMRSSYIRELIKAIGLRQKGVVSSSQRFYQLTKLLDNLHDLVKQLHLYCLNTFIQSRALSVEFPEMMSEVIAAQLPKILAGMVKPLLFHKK
Nature of the data set: PR transactivation assay (GRE2-Luc) in HEK293T cells transiently expressing hPRB. In kind it is cell-based. Details: expressed in transfected cells; host or cells: HEK 293T. On the procedure: PR Transactivation Assays in HEK 293T.
HEK 293T cells were routinely cultured in a high-glucose DMEM medium (Invitrogene, Cergy Pontoise, France), 20 mM HEPES, 2 mM glutamine, 1× non essential amino acids, 100 U/mL penicillin and 100 μg/mL streptomycin supplemented with 10% foetal calf serum (FCS) in a humidified atmosphere at 37° C. and with 5% CO2. One day before transfection, the cells were seeded at 3×10^6 cells/[…] diameter culture Petri dish and cultured overnight in the same medium. Six hours before transfection, the FCS supplemented medium was replaced by the same medium supplemented with 10% dextran-charcoal treated FCS. Transfections were carried out using the calcium phosphate precipitation method. The calcium phosphate precipitate was prepared with 0.5 μg pchPRB (Petit-Topin, et al Mol Pharmacol, 2009, 75, 1317), 7 μg reporter vector (GRE2-Luc from A. Biola-Vidamment and M. Pallardy) and 1 μg of pcβgal for an internal transfection control, in 1 mL 140 mM NaCl, 0.75 mM Na2HPO4, 25 mM HEPES, 125 mM CaCl2 pH 7.05 and added to the cells 30 minutes later. After 16 h incubation, the transfected cells were washed with PBS containing 2.5 mM EDTA, trypsinized and pooled. The transfected cells were replated in 24-well plates (100.000 transfected cells/well). […] Cells were lysed in 300 μl PBS 1×, 25 mM glycylglycine, 4 mM EDTA, 15% glycerol, 1% triton X-100, 15 mM MgSO4, pH 7.8 supplemented with 2 mM β-mercaptoethanol. The luciferase activities were quantified by using a Mithras LB940 reader microplates (Berthold).
The APRn “agonist efficacy” was determined from the following formula:
Agonist efficacy=[luciferase activity]1/[luciferase activity]2×100
The APRn “antagonist efficacy” was calculated from the following formula:
Antagonist efficacy=100−[luciferase activity]1/[luciferase activity]2×100
The results are the mean±SEM of three to five independent experiments.
All the synthesized APRn were classified in 4 series depending on the nature of their C3 substituent (R1/R′1 groups). The first one (series 1) includes APRn with no C3 substituent (R1═R′1═H) whereas series 2, 3 and 4 are related to APRn bearing a methoxyl (R1═OMe), a hydroxyl (R1═OH) and a fluorine atom (R1═F), respectively. The agonist/antagonist activities of APRn were determined either in human HEK293T cells transiently expressing hPRB or in human MDA-MB-231 iPRAB cells conditionally expressing hPRB, by using a luciferase reporter gene placed under the control of a glucocorticoid response element (GRE2-Luc). The APRn “agonist efficacy” was determined from the luciferase activity measured in the presence of APRn (1 μM). […] The “agonist efficacy” and “antagonist efficacy” are expressed as defined in the biological protocols section.

Where [1] appears, read: series 2-4, stated for both HEK293T and MDA-MB-231 iPRAB cells, APRn 1 μM, FIGS. 3-8.
[2] abbreviates: series 1 (no C3 substituent), HEK293T, APRn 1 μM, FIG. 1.

Entries after “also recorded” stand apart in the source; their conditions may differ.

Turning to `CO[C@H]1CC[C@@]2(C)[C@@H](CC[C@@H]3[C@@H]2CC[C@]2(C)[C@@H](C(C)=O)CC[C@@H]32)C1` [APR-22, 3β-Methoxy-5α-pregnan-20-one], the melting point was in the range of 125 to 126 °C. In addition, the “hPRB agonist/antagonist character (in words)” value on hPRB (setting [1]) is listed as “antagonist character without any agonist activity; also recorded: most potent molecules”.

The molecule `C#C[C@]1(O)CCC2C3CC=C4C[C@@H](F)CC[C@]4(C)C3CC[C@@]21C` (stereo partly drawn) [APR-34, 17α-Ethynyl-3β-fluoro-androst-5-en-17β-ol] yielded a melting point of 219 to 220 °C. For the same molecule, at hPRB (setting [1]), the “hPRB agonist/antagonist character (in words)” value is listed as “efficient hPRB antagonists”.

As to `CO[C@H]1CC[C@@]2(C)[C@@H](CC[C@@H]3[C@@H]2CC[C@]2(C)[C@@H](C(C)O)CC[C@@H]32)C1` (mixture of isomers) [APR-28, 3β-Methoxy-5α-pregnan-20-ol], the “hPRB agonist/antagonist character (in words)” value at hPRB (setting [1]) is on record as “antagonist character without any agonist activity”.

For the molecule `CC1CCC2C3CCC4=CC(=O)CC[C@]4(C)C3CC[C@]2(C)[C@H]1F` (stereo partly shown), the melting point was in the range of 170 to 171 °C.

For the molecule `CC1CCC2C3CCC4=CC(O)CC[C@]4(C)C3CC[C@]2(C)[C@H]1F` (single isomer, unassigned) [APR-07, 17aβ-Fluoro-17α-methyl-D-homo-pregn-4-en-3-ol], the melting point was in the range of 125 to 126 °C. The “hPRB agonist/antagonist character (in words)” value on hPRB (setting [1]) is listed as “most potent hPRB antagonist in this series”.

As for `C#CC(C)(O)[C@H]1CC[C@H]2[C@@H]3CC[C@H]4C[C@@H](OC)CC[C@]4(C)[C@H]3CC[C@]12C` (stereo partly drawn) [APR-30, 20-Ethynyl-3β-methoxy-5α-pregnan-20-ol], the melting point was in the range of 168 to 169 °C.

As for `CC(=O)[C@H]1CC[C@H]2[C@@H]3CC[C@H]4CCCC[C@]4(C)[C@H]3CC[C@]12C` [APR-01, 5α-pregnan-20-one], the antagonist efficacy at hPRB (HEK293T, APRn 1 μM plus progesterone 1 nM, FIG. 1) stood at 48%. The “efficacy to activate hPRB (agonist efficacy)” value at hPRB (HEK293T, APRn 1 μM, relative to 1 nM progesterone, FIG. 1) is reported as 30%. Further, the “hPRB agonist/antagonist character (in words)” value at hPRB (setting [2]) is reported as “partial hPRB agonist”.

`CC(=O)[C@H]1CC[C@H]2[C@@H]3CC=C4C=CCC[C@]4(C)[C@H]3CC[C@]12C` [APR-12, Pregn-3,5-dien-20-one]: the melting point was 135 to 136 °C. The “hPRB agonist/antagonist character (in words)” value at hPRB (setting [2]) is “partial antagonist”.

The molecule `C[C@]12CC[C@H](F)C[C@@H]1CC[C@@H]1[C@@H]2CC[C@]2(C)C(=O)CC[C@@H]12` [APR-35, 3β-Fluoro-5α-androstan-17-one] returned a melting point of 126 to 127 °C. Also, the “hPRB agonist/antagonist character (in words)” value on hPRB (setting [1]) is listed as “efficient hPRB antagonists”.

`C#CC(C)(O)[C@H]1CC[C@H]2[C@@H]3CC=C4C[C@@H](F)CC[C@]4(C)[C@H]3CC[C@]12C` (stereo partly drawn) [APR-21, 20-Ethynyl-3β-fluoropregn-5-en-20-ol] yielded a melting point of 213 to 214 °C.

Consider `C[C@H](O)[C@H]1CCC2C3CCC4CCCC[C@]4(C)C3CC[C@@]21C` (stereo partly shown) [APR-10, 20-Hydroxypregnane], for which the “hPRB agonist/antagonist character (in words)” value on hPRB (setting [2]) is given as “full antagonists”.

As to `C[C@H](O)[C@H]1CC[C@H]2[C@@H]3CC=C4C[C@@H](F)CC[C@]4(C)[C@H]3CC[C@]12C` [APR-24, 3β-Fluoropregn-5-en-20-ol], the “hPRB agonist/antagonist character (in words)” value at hPRB (setting [1]) is “efficient hPRB antagonists”.

As for `C#C[C@]1(O)CCC2C3CC[C@H]4CCCC[C@@H]4C3CC[C@@]21C` (stereo partly drawn) [APR-56, 17α-Ethynyl-19-nor-5-androstan-17β-ol], the “hPRB agonist/antagonist character (in words)” value on hPRB (setting [2]) was “full antagonists”.

`C[C@]12CC[C@H]3[C@@H](CC=C4C[C@@H](F)CC[C@@]43C)[C@@H]1CC[C@@H]2O` [APR-41, 3β-Fluoro-androst-5-en-17β-ol] returned a melting point of 165 to 166 °C.

As to `C#CC(C)(O)[C@H]1CC[C@H]2[C@@H]3CC[C@H]4C[C@@H](F)CC[C@]4(C)[C@H]3CC[C@]12C` (stereo partly drawn) [APR-26, 20-Ethynyl-3β-fluoro-5α-pregnan-20-ol], the melting point is 230 to 231 °C.

For the molecule `CC(=O)[C@H]1CC[C@H]2[C@@H]3CC[C@H]4C[C@@H](O)CC[C@]4(C)[C@H]3CC[C@]12C` [APR-20, 3β-Hydroxy-5α-pregnan-20-one], the “hPRB agonist/antagonist character (in words)” value at hPRB (setting [1]) is on record as “able to activate hPRB, but their agonist efficacies are low”.

As for `CC(=O)[C@H]1CC[C@H]2[C@@H]3CC=C4C[C@@H](O)CC[C@]4(C)[C@H]3CC[C@]12C` [APR-15, 3β-Hydroxypregn-5-en-20-one], on hPRB (setting [1]), the “hPRB agonist/antagonist character (in words)” value is “able to activate hPRB, but their agonist efficacies are low”.

`C[C@]12CCC3C(CC[C@H]4CCCC[C@H]34)C1CC[C@@H]2O` (stereo partly drawn) [APR-52, 19-nor-5-Androstan-17β-ol]: on hPRB (setting [2]), the “hPRB agonist/antagonist character (in words)” value was “full antagonists”.

Consider `CC(=O)O[C@@H](C)[C@H]1CC[C@H]2[C@@H]3CC[C@H]4CCCC[C@]4(C)[C@H]3CC[C@]12C` [APR-13, 20-Acetoxy-5α-pregnane], for which, at hPRB (setting [2]), the “hPRB agonist/antagonist character (in words)” value is reported as “full antagonists”.

As for `CC1CCC2C3CC=C4C=CCC[C@]4(C)C3CC[C@]2(C)[C@H]1F` (stereo partly drawn) [APR-08, 17aβ-Fluoro-17α-methyl-D-homo-pregn-3,5-diene], the “hPRB agonist/antagonist character (in words)” value at hPRB (setting [2]) was “partial antagonist”; on hPRB (series 1 (no C3 substituent), HEK293T, APRn 1 μM, FIG. 1, listed as APR-8), “full antagonists”.

`CC1CCC2C3CC=C4CC5(CC[C@]4(C)C3CC[C@]2(C)[C@H]1F)OCCO5` (stereo partly drawn) [APR-05, 17aβ-Fluoro-17α-methyl-D-homo-3-ethylenedioxo-5-androstene] came in with a melting point of 146 to 147 °C.

For the molecule `C[C@]12CCCC[C@@H]1CC[C@@H]1[C@@H]2CC[C@]2(C)[C@@H](O)CC[C@@H]12` [APR-14, 5α-Androstan-17β-ol], on hPRB (setting [2]), the “hPRB agonist/antagonist character (in words)” value is given as “full antagonists”.

On to `CO[C@H]1CC[C@@]2(C)C(=CC[C@H]3[C@@H]4CC[C@H](C(C)=O)[C@@]4(C)CC[C@@H]32)C1` [APR-02, 3β-Methoxypregn-5-en-20-one], for which the “hPRB agonist/antagonist character (in words)” value was “most potent molecules” at hPRB (setting [1]); “antagonist character without any agonist activity” at hPRB (series 2-4, stated for both HEK293T and MDA-MB-231 iPRAB cells, APRn 1 μM, FIGS. 3-8, listed as APR2).

Take `CC(O)[C@H]1CC[C@H]2[C@@H]3CC[C@H]4C[C@@H](O)CC[C@]4(C)[C@H]3CC[C@]12C` (mixture of isomers) [APR-29, 5α-Pregnan-3β,20-diol]: the “hPRB agonist/antagonist character (in words)” value on hPRB (setting [1]) is “able to activate hPRB, but their agonist efficacies are low”.

`C[C@]12CCC3C(CC=C4C[C@@H](O)CC[C@@H]43)C1CC[C@@H]2O` (stereo partly drawn) [APR-48, 19-nor-Androst-5-en-3β,17β-diol]: the “hPRB agonist/antagonist character (in words)” value on hPRB (setting [1]) is listed as “Except for APR48, the molecules of this series behave as antagonists”.
